# Literature values as cited in US20120034276A1, “SOLID PREPARATION” (ASKA Pharmaceutical Co., Ltd., priority 2009, published 2012).
# Residues, ends and D or L forms follow the SMILES beside them.
# Details: numeral in parenthesis, for reference; first or second dissociation step
row,Structure (SMILES),acid dissociation constant pKa
1,NCC(=O)NC(Cc1c[nH]cn1)C(=O)NCC(=O)O (racemic) [glycyl-DL-histidylglycine],3.26
2,"O=C(O)c1cccc(C(=O)O)n1 [2,6-pyridinedicarboxylic acid]",2.09
3,C[C@H](N)C(=O)N[C@@H](C)C(=O)O [L-alanyl-L-alanine] (H-Ala-Ala-OH),3.20
4,C[C@H](N)C(=O)NCC(=O)O [L-alanylglycine] (H-Ala-Gly-OH),3.10
5,C[C@H](N)C(=O)NCC(=O)NCC(=O)NCC(=O)O [L-alanylglycylglycylglycine] (H-AGGG-OH),3.18
6,N[C@@H](Cc1c[nH]cn1)C(=O)NCC(=O)O [L-histidylglycine] (H-His-Gly-OH),2.84
7,"CN(C)CC(=O)O [N,N-dimethylglycine]",2.08
8,CNCC(=O)O [N-methylglycine],2.20
9,C[C@H](N)C(=O)O [alanine],2.30
10,Nc1ccc(C(=O)O)cc1 [aminobenzoic acid],2.02-3.12
11,N=C(N)NCCC[C@H](N)C(=O)O [arginine],2.05
12,N[C@@H](CC(=O)O)C(=O)O [aspartic acid],1.93
13,O=C(O)CC(O)(CC(=O)O)C(=O)O [citric acid],2.87
14,NC(=O)NCCC[C@H](N)C(=O)O [citrulline],2.43
15,O=C(O)[C@H](O)[C@@H](O)[C@H](O)[C@H](O)CO [gluconic acid],3.86
16,N[C@@H](CCC(=O)O)C(=O)O [glutamic acid],2.18
17,O=C(O)CO [glycolic acid],3.63
18,C[C@H](NC(=O)CN)C(=O)O [glycyl-L-alanine] (H-Gly-Ala-OH),3.07
19,NCC(=O)N[C@@H](Cc1c[nH]cn1)C(=O)O [glycyl-L-histidine] (H-Gly-His-OH),2.54

row,Structure (SMILES),acid dissociation constant pKa
1,C[C@H](NC(=O)CNC(=O)CN)C(=O)O [glycylglycyl-L-alanine],3.18
2,NCC(=O)NCC(=O)N[C@@H](Cc1c[nH]cn1)C(=O)O [glycylglycyl-L-histidine] (H-Gly-Gly-His-OH),2.72
3,NCC(=O)NCC(=O)NCC(=O)N[C@@H](Cc1c[nH]cn1)C(=O)O [glycylglycylglycyl-L-histidine] (H-GGGH-OH),2.90
4,O=CC(=O)O [glyoxylic acid],3.18
5,CC(O)C(=O)O (centres unmarked) [lactic acid],3.66
7,NCCCC[C@H](N)C(=O)O [lysine],2.04
8,O=C(O)CC(O)C(=O)O (centres unmarked) [malic acid],3.24
9,CSCC[C@H](N)C(=O)O [methionine],2.15
10,CCCC[C@H](N)C(=O)O [norleucine],2.30
11,N[C@@H](Cc1ccccc1)C(=O)O [phenylalanine],2.26
12,O=[PH](O)O [phosphonic acid],1.5
13,CC(=O)C(=O)O [pyruvic acid],2.26
14,N[C@@H](CO)C(=O)O [serine],2.13
15,O=C(O)CCC(=O)O [succinic acid],4.00
16,O=C(O)C(O)C(O)C(=O)O (centres unmarked) [tartaric acid],2.82-2.99
17,C[C@@H](O)[C@H](N)C(=O)O [threonine],2.21
18,N[C@@H](Cc1c[nH]c2ccccc12)C(=O)O [tryptophan],2.35
19,CC(C)[C@H](N)C(=O)O [valine],2.26
